# Test results from ChEMBL document CHEMBL1151710, “Sesquiterpenes from the sponge Axinyssa isabela” (2008).
# Active and inactive are the calls of the source. The calls are words filed in the database; no cut-off is given here.
# Assays:
# MDA-MB-231 [1] = experiment: Cytotoxicity against human MDA-MB-231 cells by SRB assay; type: functional
# A549 [2] = experiment: Cytotoxicity against human A549 cells by SRB assay; type: functional
# HT-29 [3] = experiment: Cytotoxicity against human HT-29 cells by SRB assay; type: functional
# HT-29 [4] = experiment: Cytotoxicity against human HT-29 cells at 10 ug/ml by SRB assay; type: functional, cell-based
# A549 [5] = experiment: Cytotoxicity against human A549 cells at 10 ug/ml by SRB assay; type: functional, cell-based
# MDA-MB-231 [6] = experiment: Cytotoxicity against human MDA-MB-231 cells at 10 ug/ml by SRB assay; type: functional, cell-based
Compound,GI50 (MDA-MB-231 [1]) [µM],GI50 (A549 [2]) [µM],GI50 (HT-29 [3]) [µM],Activity (HT-29 [4]),Activity (A549 [5]),Activity (MDA-MB-231 [6])
COc1cccc2c1C(=O)c1c(O)c3c(c(O)c1C2=O)C[C@@](O)(C(=O)CO)C[C@@H]3O[C@H]1C[C@H](N)[C@H](O)[C@H](C)O1 [DOXORUBICIN],0.1,0.1,0.1,–,–,–
C[C@H]1CCCC2=C[C@H](C#N)[C@H]3[C@H](C3(C)C)[C@@]21C,–,–,–,inactive,inactive,inactive
C[C@H]1CC[C@@H](O)C2=CC(=O)[C@H]3[C@H](C3(C)C)[C@@]21C,–,–,–,inactive,inactive,inactive
C=C(C)[C@H]1CC[C@@]2(C)CCC[C@@](C)(N=C=S)[C@@H]2C1,–,–,–,inactive,inactive,inactive
CC(C)=CCCC(C)(N=C=S)[C@H]1CC=C(C)CC1 (some centres not stated),–,–,–,inactive,inactive,inactive
C=C(C)[C@]1(OO)CC[C@@]2(C)CCC[C@@](C)(N=C=S)[C@@H]2C1 [AXINISOTHIOCYANATE N],33.3,32.6,–,–,–,–
C[C@H]1CC[C@H](O)C2=CC(=O)[C@H]3[C@H](C3(C)C)[C@@]21C,–,–,–,inactive,inactive,inactive
C[C@H]1CC(=O)C=C2[C@H]3O[C@H]3[C@H]3[C@H](C3(C)C)[C@@]21C [AXINYSONE E],–,38.7,38.3,–,–,–
C[C@H]1CC[C@@H](OO)C2=CC(=O)[C@H]3[C@H](C3(C)C)[C@@]21C,–,–,–,inactive,inactive,inactive
C[C@H]1CCCC2=CC(=O)[C@H]3[C@H](C3(C)C)[C@@]21C,–,–,–,inactive,inactive,inactive
C=C1CCC[C@]2(C)CC[C@@H](C(=C)C)[C@H](N=C=S)[C@@H]12,–,–,–,inactive,inactive,inactive
C[C@H]1CCC[C@]2(O)[C@@H](O)C(=O)[C@H]3[C@H](C3(C)C)[C@]12C,–,–,–,inactive,inactive,inactive
C=C(C)[C@]1(O)CC[C@@]2(C)CCC[C@@](C)(N=C=S)[C@@H]2C1,–,–,–,inactive,inactive,inactive
